Test results: patent US20230278972A1, “SUBSTITUTED HALOALKYL SULFONANILIDE HERBICIDES” (FMC Corporation, priority 2020, published 2023)

Assays:
Type in all cases: in vivo
[1] = test system: barnyardgrass (Echinochloa crus-galli); test: Test A preemergence, barnyardgrass; details: Preemergence; for Barnyardgrass plant response rating: 125 g ai/ha, visual injury on 0 to 100 scale (0 no effect, 100 complete control), approximately 10 days; for Plant response rating, Barnyardgrass: 500 g ai/ha, 0 to 100 scale (0 no effect, 100 complete control)
Method in brief: (§1)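 Directed soil spray at planting gave the preemergence treatment, while foliar application to one- to two-leaf seedlings (2–10 cm) gave the postemergence one; pots held a loam and sand mixture and chemicals were carried in a non-phytotoxic solvent with surfactant.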

[2] = test system: kochia (Bassia scoparia); test: Test A preemergence, kochia; details: Preemergence; for Kochia plant response rating: 125 g ai/ha, visual injury on 0 to 100 scale (0 no effect, 100 complete control), approximately 10 days; for Plant response rating, Kochia: 500 g ai/ha, 0 to 100 scale (0 no effect, 100 complete control)
Method in brief: as §1

[3] = test system: ragweed (common ragweed, Ambrosia artemisiifolia); test: Test A preemergence, ragweed; details: Preemergence; for Ragweed plant response rating: 125 g ai/ha, visual injury on 0 to 100 scale (0 no effect, 100 complete control), approximately 10 days; for Plant response rating, Ragweed: 500 g ai/ha, 0 to 100 scale (0 no effect, 100 complete control)
Method in brief: as §1

[4] = test system: Ryegrass, Italian (Italian ryegrass, Lolium multiflorum); test: Test A preemergence, Ryegrass, Italian; details: Preemergence; for Ryegrass, Italian plant response rating: 125 g ai/ha, visual injury on 0 to 100 scale (0 no effect, 100 complete control), approximately 10 days; for Plant response rating, Ryegrass, Italian: 500 g ai/ha, 0 to 100 scale (0 no effect, 100 complete control)
Method in brief: as §1

[5] = test system: Foxtail, Giant (giant foxtail, Setaria faberi); test: Test A preemergence, Foxtail, Giant; details: Preemergence; for Foxtail, Giant plant response rating: 125 g ai/ha, visual injury on 0 to 100 scale (0 no effect, 100 complete control), approximately 10 days; for Plant response rating, Foxtail, Giant: 500 g ai/ha, 0 to 100 scale (0 no effect, 100 complete control)
Method in brief: as §1

[6] = test system: pigweed (Amaranthus retroflexus); test: Test A preemergence, pigweed; details: for Pigweed plant response rating: 125 g ai/ha, visual injury on 0 to 100 scale (0 no effect, 100 complete control), approximately 10 days; for Plant response rating, Pigweed: 500 g ai/ha, 0 to 100 scale (0 no effect, 100 complete control)
Method in brief: as §1

[7] = test system: barnyardgrass (Echinochloa crus-galli); test: Test A postemergence, barnyardgrass; details: Postemergence, 0 to 100 scale (0 no effect, 100 complete control)
Method in brief: as §1

[8] = test system: kochia (Bassia scoparia); test: Test A postemergence, kochia; details: Postemergence, 0 to 100 scale (0 no effect, 100 complete control)
Method in brief: as §1

[9] = test system: ragweed (common ragweed, Ambrosia artemisiifolia); test: Test A postemergence, ragweed; details: Postemergence, 0 to 100 scale (0 no effect, 100 complete control)
Method in brief: as §1

[10] = test system: Ryegrass, Italian (Italian ryegrass, Lolium multiflorum); test: Test A postemergence, Ryegrass, Italian; details: Postemergence, 0 to 100 scale (0 no effect, 100 complete control)
Method in brief: as §1

[11] = test system: Foxtail, Giant (giant foxtail, Setaria faberi); test: Test A postemergence, Foxtail, Giant; details: Postemergence, 0 to 100 scale (0 no effect, 100 complete control)
Method in brief: as §1

[12] = test system: pigweed (Amaranthus retroflexus); test: Test A postemergence, pigweed; details: Postemergence, 0 to 100 scale (0 no effect, 100 complete control)
Method in brief: as §1

[13] = test system: wheat (Triticum aestivum); test: Test A postemergence, wheat; details: Postemergence, 0 to 100 scale (0 no effect, 100 complete control)
Method in brief: as §1

[14] = test system: corn (Zea mays); test: Test A postemergence, corn; details: Postemergence, 0 to 100 scale (0 no effect, 100 complete control)
Method in brief: as §1

[15] = test system: blackgrass (Alopecurus myosuroides); test: Test A postemergence, blackgrass; details: Postemergence, 0 to 100 scale (0 no effect, 100 complete control)
Method in brief: as §1

[16] = test system: galium (catchweed bedstraw, Galium aparine); test: Test A postemergence, galium; details: Postemergence, 0 to 100 scale (0 no effect, 100 complete control)
Method in brief: as §1

[17] = 125 g ai/ha, visual injury approx. 10 days
[18] = 500 g ai/ha, visual injury, approx. 10 days

Compound: COc1cnn(-c2cc(N(S(=O)(=O)C(F)(F)F)S(=O)(=O)C(F)(F)F)c(C)cc2C)c(=O)c1OC [Compound 40]
- Barnyardgrass plant response rating [1]: 90
- Plant response rating, Barnyardgrass [1]: 90
- Kochia plant response rating [2]: 80
- Plant response rating, Kochia [2]: 80
- Ragweed plant response rating [3]: 50
- Plant response rating, Ragweed [3]: 50
- Ryegrass, Italian plant response rating [4]: 30
- Plant response rating, Ryegrass, Italian [4]: 80
- Foxtail, Giant plant response rating [5]: 90
- Plant response rating, Foxtail, Giant [5]: 100
- Pigweed plant response rating [6]: 100
- Plant response rating, Pigweed [6]: 100
- Plant response rating, Barnyardgrass [7, 17]: 10
- Plant response rating, Barnyardgrass [7, 18]: 40
- Plant response rating, Kochia [8, 17]: 10
- Plant response rating, Kochia [8, 18]: 20
- Plant response rating, Ragweed [9, 17]: 40
- Plant response rating, Ragweed [9, 18]: 40
- Plant response rating, Ryegrass, Italian [10, 17]: 30
- Plant response rating, Ryegrass, Italian [10, 18]: 60
- Plant response rating, Foxtail, Giant [11, 17]: 0
- Plant response rating, Foxtail, Giant [11, 18]: 10
- Plant response rating, Pigweed [12, 17]: 0
- Plant response rating, Pigweed [12, 18]: 30
- Plant response rating, Wheat [13, 17]: 0
- Plant response rating, Wheat [13, 18]: 40
- Plant response rating, Corn [14, 17]: 0
- Plant response rating, Corn [14, 18]: 0
- Plant response rating, Blackgrass [15, 17]: 10
- Plant response rating, Blackgrass [15, 18]: 10
- Plant response rating, Galium [16, 17]: 20
- Plant response rating, Galium [16, 18]: 70

Compound: Cc1cc(C)c(-c2cc(C(C)C)nn(C)c2=O)cc1NS(=O)(=O)C(F)(F)F [Compound 41]
- Barnyardgrass plant response rating [1]: 50
- Plant response rating, Barnyardgrass [1]: 90
- Kochia plant response rating [2]: 0
- Plant response rating, Kochia [2]: 0
- Ragweed plant response rating [3]: 30
- Plant response rating, Ragweed [3]: 80
- Ryegrass, Italian plant response rating [4]: 60
- Plant response rating, Ryegrass, Italian [4]: 80
- Foxtail, Giant plant response rating [5]: 10
- Plant response rating, Foxtail, Giant [5]: 80
- Pigweed plant response rating [6]: 0
- Plant response rating, Pigweed [6]: 0
- Plant response rating, Barnyardgrass [7, 17]: 0
- Plant response rating, Barnyardgrass [7, 18]: 80
- Plant response rating, Kochia [8, 17]: 0
- Plant response rating, Kochia [8, 18]: 0
- Plant response rating, Ragweed [9, 17]: 40
- Plant response rating, Ragweed [9, 18]: 70
- Plant response rating, Ryegrass, Italian [10, 17]: 60
- Plant response rating, Ryegrass, Italian [10, 18]: 60
- Plant response rating, Foxtail, Giant [11, 17]: 0
- Plant response rating, Foxtail, Giant [11, 18]: 30
- Plant response rating, Pigweed [12, 17]: 0
- Plant response rating, Pigweed [12, 18]: 0
- Plant response rating, Wheat [13, 17]: 50
- Plant response rating, Wheat [13, 18]: 60
- Plant response rating, Corn [14, 17]: 0
- Plant response rating, Corn [14, 18]: 0
- Plant response rating, Blackgrass [15, 17]: 0
- Plant response rating, Blackgrass [15, 18]: 40
- Plant response rating, Galium [16, 17]: 10
- Plant response rating, Galium [16, 18]: 30

Compound: Cc1cc(C)c(N(S(=O)(=O)C(F)(F)F)S(=O)(=O)C(F)(F)F)cc1-c1cn(C)c(=O)n(C)c1=O [Compound 42]
- Barnyardgrass plant response rating [1]: 90
- Plant response rating, Barnyardgrass [1]: 100
- Kochia plant response rating [2]: 40
- Plant response rating, Kochia [2]: 70
- Ragweed plant response rating [3]: 30
- Plant response rating, Ragweed [3]: 80
- Ryegrass, Italian plant response rating [4]: 100
- Plant response rating, Ryegrass, Italian [4]: 100
- Foxtail, Giant plant response rating [5]: 100
- Plant response rating, Foxtail, Giant [5]: 100
- Pigweed plant response rating [6]: 40
- Plant response rating, Pigweed [6]: 80
- Plant response rating, Barnyardgrass [7, 17]: 70
- Plant response rating, Barnyardgrass [7, 18]: 80
- Plant response rating, Kochia [8, 17]: 20
- Plant response rating, Kochia [8, 18]: 30
- Plant response rating, Ragweed [9, 17]: 40
- Plant response rating, Ragweed [9, 18]: 80
- Plant response rating, Ryegrass, Italian [10, 17]: 70
- Plant response rating, Ryegrass, Italian [10, 18]: 80
- Plant response rating, Foxtail, Giant [11, 17]: 90
- Plant response rating, Foxtail, Giant [11, 18]: 90
- Plant response rating, Pigweed [12, 17]: 40
- Plant response rating, Pigweed [12, 18]: 100
- Plant response rating, Wheat [13, 17]: 70
- Plant response rating, Wheat [13, 18]: 70
- Plant response rating, Corn [14, 17]: 0
- Plant response rating, Corn [14, 18]: 60
- Plant response rating, Blackgrass [15, 17]: 40
- Plant response rating, Blackgrass [15, 18]: 90
- Plant response rating, Galium [16, 17]: 50
- Plant response rating, Galium [16, 18]: 60
